The test system of one assay is RBL 2H3 cells. Briefly: assay for degranulation of the RBL 2H3 cells (release of β-hexose-aminidase induced by anti-DNP IgE and DNP-BSA antigen). Format: cell-based, rat. The note with it: for percentage inhibition of the degranulation reaction: added together with the antigen; for concentration able to reduce 50% of the cellular degranulation: RBL 2H3 cells, 0.5 µg/ml IgE, 0.05 µg/ml DNP-BSA; for IC50: read-out: concentration able to reduce 50% of the cellular degranulation. An excerpt: The RBL 2H3 cell line, rat basophils that express the receptor with high affinity for the immunoglobulins of class E (FcεRl), is widely used for investigating allergic reactions, because in this cell line the chemical mediators of inflammation are released as a result of allergen specific-IgE-FcεRI binding.
Release of the enzyme β-hexose-aminidase, which is present together with histamine in the granules of mast cells and basophils, can be used as an index of cellular degranulation (Tanaka et al., 1991, Chem. Pharm. Bull, 39, 2072-2076; McCloskey et al., 1988, Proc. Natl. Acad. Sci., USA, 85, 7260-7264).
The activity of the enzyme β-hexose-aminidase, released by the stimulated RBL 2H3 cells, was determined by the method described by Yamanishi et al., 1995, Jour. Biotech. Biochem., 59 (7), 1272-1275, which envisages measurement of the enzymatic activity by measuring the absorbance of the product p-nitrophenol generated by the synthetic substrate p-nitrophenyl-N-acetyl-β-D-glucosamide. 1x10^5 RBL 2H3 cells, trypsinized from plates at confluence, were resuspended in a volume of 80 µl of the culture medium (MEM + 10% inactivated fetal bovine serum) and distributed in each well of the 96-well plates (Costar). After 24 hours, 20 µl of medium containing anti-2,4-dinitrophenol monoclonal IgEs (DNP, Sigma, Cat. No. D-8406) was added to each well.
The microplates were incubated at 37°C for one hour and then washed three times with 100 µl of HBS buffer solution (10 mM HEPES, 135 mM NaCl, 5 mM KCI, 1 mM CaCl2, 0.5 mM MgCl2, 5.6 mM glucose, 0.1 % BSA, pH 7.4). After the washings, 100 µl of HBS containing the 2,4-dinitrophenol antigen conjugated to BSA (Sigma, Cat. No. A-6661) was added. As a control, 100 µl of HBS containing 1% Triton X-100 was added to some wells to determine the total amount of enzyme contained in the cellular granules.
After further incubation at 37°C for two hours, 30 µl of cellular supernatant or of cellular lysate was transferred to a new microplate, to which 50 µl of sodium citrate buffer at pH 4.5, containing 4 mM p-nitrophenyl-N-acetyl-β-D-glucosaminide (Sigma, Cat. No. N9376), a specific substrate for the enzyme β-hexose-aminidase, had been added beforehand. After incubation for two hours at 37°C, the reaction was stopped by adding 100 µl of glycine solution 0.2 M, pH 10.7. The enzymatic activity was determined by measuring the absorbance at 405 nm with a Microplate Reader Model 3550 EIA (Bio-Rad).
In preliminary experiments the immunoglobulins E and the antigen were added at various concentrations in order to determine the optimum concentrations for induction of the reaction of enzymatic release. The conditions identified experimentally correspond to 0.5 µg/ml of IgE and 0.05 µg/ml of antigen DNP conjugated to BSA.
To verify the capacity of the peptides of formula IB and of comparative peptides for inhibiting the degranulation of the RBL 2H3 cells, the peptides were added in the assay together with the antigen at concentrations between 0.1 and 500 µg/ml.

For assay [1], the system named is female mice of the Balb/c strain. It is filed as in vivo, mouse. To be noted: for dose producing 50% inhibition of the local allergic reaction: mouse, intraperitoneally; for Inhibition of skin reaction (%): 30 minutes before antigen. As for the experimental part: Cutaneous passive anaphylaxis on the mouse ear was induced according to the procedure described by Inagaki et al., Int. Arch. Allergy Appl. Immunol. 1985, 78:113-117. Rat ascitic fluid containing specific IgEs against the ovalbumin antigen was injected in the ear of female mice of the Balb/c strain. Ascitic fluid at different dilutions (5-10-20 times in PBS) was applied by intradermal injections at a volume of 10 µl, permitting the IgEs present in the ascitic fluid to bind to the FcεRs of the local mast cells, sensitizing them. After 48 hours, 0.25 mg of ovalbumin and Evans Blue dye at a concentration of 1.8%, dissolved in 70 µl of PBS, were injected intravenously. After 30 minutes, the appearance, on the mouse ear, of stained areas in the dermis, with extent and intensity of staining proportional to the quantity of antigen-specific IgEs injected with the ascitic fluid, was observed. The experiment included a negative control, represented by the intradermal injection of 10 µl of PBS without ascitic fluid, and there was no corresponding appearance of staining. The mice were sacrificed and the ears were removed for extraction and measurement of the dye discharged in the skin reaction. Each ear was dissolved in 0.5 ml of 1 M KOH, incubating at 37°C for 16 hours. After incubation, 2 ml of a mixture of 0.6M phosphoric acid and acetone in the ratio 5:13 (v:v) was added. The sample was then stirred and filtered, and finally the amount of dye was determined with a spectrophotometer, taking readings at 620 nm. On the basis of the results obtained in the IgE-FcER linear binding assay, selecting as reference point the value of dilution of the ascitic fluid at which the most intense inflammatory reaction was observed, an assay of inhibition of the allergic reaction was performed using peptide IB and the comparative peptide. As described previously, intradermal injections of 10 µl of ascitic fluid, diluted 20 times in PBS, were applied to the ear lobe of a group of Balb/c mice, permitting the IgEs present in the ascitic fluid to bind to the FcεRs of the local mast cells, sensitizing them. After two days, various amounts of the peptides under investigation were dissolved in 100 µl of PBS and administered intraperitoneally to the sensitized mice. In particular, doses corresponding to 0.5 - 1 - 5 - 10 - 50 mg of peptide per kg of body weight of the mouse were used. 100 µl of PBS was injected as negative control. After 30 minutes the mice received the intravenous injection of the solution of ovalbumin and Evans Blue dye.

Setting [2] is: Concentration of Peptide 0.1 µg/ml.
[3] abbreviates: Concentration of Peptide 1 µg/ml.
[4] abbreviates: Concentration of Peptide 10 µg/ml.
Setting [5] is: Concentration of Peptide 50 µg/ml.
Setting [6] is: Concentration of Peptide 100 µg/ml.
Setting [7] is: Concentration of Peptide 500 µg/ml.

Like-named read-outs stand apart in the source and are kept apart here.

For the molecule `C[C@H](O)[C@@H](NC(=O)[C@H](N)CCCNC(=N)N)C(=O)N[C@H](Cc1ccc(O)cc1)C(=O)NCCCC[C@H](NC(=O)[C@@H](Cc1ccc(O)cc1)NC(=O)[C@H](NC(=O)[C@H](N)CCCNC(=N)N)[C@H](C)O)C(=O)NCCCC[C@H](NC(=O)[C@H](CCCCNC(=O)[C@@H](Cc1ccc(O)cc1)NC(=O)[C@H](NC(=O)[C@H](N)CCCNC(=N)N)[C@H](C)O)NC(=O)[C@@H](Cc1ccc(O)cc1)NC(=O)[C@H](NC(=O)[C@H](N)CCCNC(=N)N)[C@H](C)O)C(=O)NCC(=O)O` [Comparative peptide, (H-D-Arg-D-Thr-D-Tyr-)4-L-Lys2-L-Lys-Gly-OH, reference compound], the “percentage inhibition of the degranulation reaction” value with RBL 2H3 cells (setting [2]) turned out to be 0%; in the assay with RBL 2H3 cells (setting [3]), 40%; in the assay on RBL 2H3 cells (setting [4]) it was 49%; in the assay on RBL 2H3 cells (setting [5]), 59%; in the assay on RBL 2H3 cells (setting [6]), 62%; with RBL 2H3 cells (setting [7]), 70%. Also, in the assay with RBL 2H3 cells, the “concentration able to reduce 50% of the cellular degranulation” value was 10 µg/mL. Besides, the IC50 with RBL 2H3 cells is 4600 nM. The “dose producing 50% inhibition of the local allergic reaction” value in assay [1] was “about 7 mg/kg”.

Regarding “(H-L-Cys(p-MeOBzl)-D-Arg-D-Thr-D-Tyr)4-L-Lys2-L-Lys-L-Lys-OH [Peptide IB]”, the “percentage inhibition of the degranulation reaction” value in the assay with RBL 2H3 cells (setting [2]) was found to be 20%; with RBL 2H3 cells (setting [3]) it was 76%; in the assay on RBL 2H3 cells (setting [4]), 80%; in the assay on RBL 2H3 cells (setting [5]), 82%; in the assay on RBL 2H3 cells (setting [6]), 85%; in the assay on RBL 2H3 cells (setting [7]), 90%. Moreover, the “concentration able to reduce 50% of the cellular degranulation” value in the assay on RBL 2H3 cells stood at 1 µg/mL. For the same molecule, the figures for the “activity greater than the activity of the comparative peptide” value (in the assay with RBL 2H3 cells (degranulation of RBL 2H3 cells); in assay [1] (mouse ear passive cutaneous anaphylaxis)) were “approx. 15 times” and “about 7 times”, respectively. Further, in the assay with RBL 2H3 cells, the IC50 is about 300 nM. For the same molecule, the “Inhibition of skin reaction (%)” value in assay [1] (Dose of Peptide 0.5 mg/kg intraperitoneally) is listed as 10%; in assay [1] (Dose of Peptide 1.0 mg/kg intraperitoneally), 50%; in assay [1] (Dose of Peptide 5.0 mg/kg intraperitoneally), 65%; in assay [1] (Dose of Peptide 10.0 mg/kg intraperitoneally), 71%; in assay [1] (Dose of Peptide 50.0 mg/kg intraperitoneally), 85%. The “dose producing 50% inhibition of the local allergic reaction” value in assay [1] was found to be 1 mg/kg.
